Data reported in US6680323B2, “Dihydropyrimidines and uses thereof” (Synaptic Pharmaceutical Corporation, priority 1998, dated 2004).
Counter-ions that a name gives are not always drawn.

Legend:
human α1d receptor = target: T1, human α1d receptor (Homo sapiens, UniProt P25100); assay: Radioligand binding ([3H]prazosin) at cloned human α1d receptor; conditions: second column headed hα1a (c3); membranes of transfected LM(tk−) cells, [3H]prazosin 0.5 nM; read-out: Binding affinity hα1a
T1 construct: expressed in transfected cells
T1 sequence (P25100 1-572): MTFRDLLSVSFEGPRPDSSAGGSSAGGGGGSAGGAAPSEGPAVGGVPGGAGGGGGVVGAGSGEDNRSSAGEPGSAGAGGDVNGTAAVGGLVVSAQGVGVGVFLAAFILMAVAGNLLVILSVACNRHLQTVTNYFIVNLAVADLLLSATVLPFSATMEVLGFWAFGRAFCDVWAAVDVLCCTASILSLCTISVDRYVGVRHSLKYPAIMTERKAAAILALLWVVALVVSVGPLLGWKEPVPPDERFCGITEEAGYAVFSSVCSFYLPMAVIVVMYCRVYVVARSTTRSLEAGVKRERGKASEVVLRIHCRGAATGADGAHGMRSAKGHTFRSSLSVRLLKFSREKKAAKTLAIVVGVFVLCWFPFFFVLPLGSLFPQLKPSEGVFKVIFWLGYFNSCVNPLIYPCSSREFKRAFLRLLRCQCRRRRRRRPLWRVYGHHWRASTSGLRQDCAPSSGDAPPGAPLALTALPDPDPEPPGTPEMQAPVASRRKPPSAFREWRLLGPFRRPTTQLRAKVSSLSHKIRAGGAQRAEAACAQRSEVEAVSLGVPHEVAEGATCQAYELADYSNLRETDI
Protocol: The activity of compounds at the different human receptors was determined in vitro using cultured cell lines that selectively express the receptor of interest. These cell lines were prepared by transfecting the cloned cDNA or cloned genomic DNA or constructs containing both genomic DNA and cDNA encoding the human α-adrenergic receptors as follows:
α1d Human Adrenergic Receptor
The entire coding region of α1d (1719 bp), including 150 base pairs of 5′ untranslated sequence (5′ UT) and 300 bp of 3′ untranslated sequence (3′ UT), was cloned into the BamHI and ClaI sites of the polylinker-modified eukaryotic expression vector pCEXV-3, called EXJ.HR. The construct involved the ligation of partial overlapping human lymphocyte genomic and hippocampal cDNA clones: 5′ sequence were contained on a 1.2 kb SmaI-XhoI genomic fragment (the vector-derived BamHI site was used for subcloning instead of the internal ninsert-derived SmaI site) and 3′ sequences were contained on an 1.3 kb XhoI-ClaI cDNA fragment (the ClaI site was from the vector polylinker). Stable cell lines were obtained by cotransfection with the plasmid α1A/EXJ (expression vector containing the α1a receptor gene (old nomenclature)) and the plasmid pGCcos3neo (plasmid containing the aminoglycoside transferase gene) into LM(tk−) cells using calcium phosphate technique. The cells were grown, in a controlled environment (37° C., 5% CO2), as monolayers in Dulbecco's modified Eagle's Medium (GIBCO, Grand Island, N.Y.) containing 25 mM glucose and supplemented with 10% bovine calf serum, 100 units/ml penicillin g, and 100 μg/ml streptomycin sulfate. Stable clones were then selected for resistance to the antibiotic G-418 (1 mg/ml), and membranes were harvested and assayed for their ability to bind [^3H]prazosin as described below (see “Radioligand Binding assays”).
The cell line expressing the human α1d receptor used herein was designated L-α1A (old nomenclature) and was deposited with the American Type Culture Collection, 12301 Parklawn Drive, Rockville, Md. 20852, U.S.A. under the provisions of the Budapest Treaty for the International Recognition of the Deposit of Microorganisms for the Purposes of Patent Procedure. The cell line expressing the human α1d receptor, was accorded ATCC Accession No. CRL 11138, and was deposited on Sep. 25, 1992.
Radioligand Binding Assays for α1 Receptors
Transfected cells from culture flasks were scraped into 5 ml of 5 mM Tris-HCl, 5 mM EDTA, pH 7.5, and lysed by sonication. The cell lysates were centrifuged at 1000 rpm for 5 min at 4° C., and the supernatant was centrifuged at 30,000×g for 20 min at 4° C. The pellet was suspended in 50 mM Tris-HCl, 1 mM MgCl2, and 0.1% ascorbic acid at pH 7.5. Binding of the α1 antagonist [^3H]prazosin (0.5 nM, specific activity 76.2 Ci/mmol) to membrane preparations of LM(tk−) cells was done in a final volume of 0.25 ml and incubated at 37° C. for 20 min. Nonspecific binding was determined in the presence of 10 μM phentolamine. The reaction was stopped by filtration through GF/B filters using a cell harvester. Inhibition experiments, routinely consisting of 7 concentrations of the tested compounds, were analyzed using a non-linear regression curve-fitting computer program to obtain Ki values.

human α2c receptor = target: T2, human α2c receptor (Homo sapiens, UniProt P18825); assay: Competition binding ([3H]rauwolscine) at cloned human α2c receptor; conditions: transfected LM(tk−) cells, [3H]rauwolscine 0.5 nM; read-out: Binding affinity hα2c
T2 construct: expressed in transfected cells
T2 sequence (P18825 1-462): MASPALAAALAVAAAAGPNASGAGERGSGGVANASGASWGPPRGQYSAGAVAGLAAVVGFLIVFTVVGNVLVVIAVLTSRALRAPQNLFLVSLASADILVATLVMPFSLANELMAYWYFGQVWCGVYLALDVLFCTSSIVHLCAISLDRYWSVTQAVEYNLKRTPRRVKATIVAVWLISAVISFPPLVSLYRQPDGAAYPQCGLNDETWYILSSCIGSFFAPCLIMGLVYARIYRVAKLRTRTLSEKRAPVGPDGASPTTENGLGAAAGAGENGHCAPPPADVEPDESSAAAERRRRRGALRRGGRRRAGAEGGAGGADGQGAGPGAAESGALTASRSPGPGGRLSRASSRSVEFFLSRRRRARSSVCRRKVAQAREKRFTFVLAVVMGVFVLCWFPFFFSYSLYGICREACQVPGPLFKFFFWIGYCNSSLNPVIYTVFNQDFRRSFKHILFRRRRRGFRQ
Text: α2 Human Adrenergic Receptors
To determine the potency of α1 antagonists at the α2 receptors, LM(tk−) cell lines stably transfected with the genes encoding the α2a, α2b, and α2c receptors were used. The cell line expressing the α2a receptor is designated L-α2A, and was deposited on Nov. 6, 1992 under ATCC Accession No. CRL 11180. The cell line expressing the α2b receptor is designated L-NGC-α2B, and was deposited on Oct. 25, 1989 under ATCC Accession No. CRL10275. The cell line expressing the α2c receptor is designated L-α2C, and was deposited on Nov. 6, 1992 under ATCC Accession No. CRL-11181. All the cell lines were deposited with the American Type Culture Collection, 12301 Parklawn Drive, Rockville, Md. 20852, U.S.A. under the provisions of the Budapest Treaty for the International Recognition of the Deposit of Microorganisms for the Purposes of Patent Procedure. Cell lysates were prepared as described above (see Radioligand Binding Assays), and suspended in 25 mM glycylglycine buffer (pH 7.6 at room temperature). Equilibrium competition binding assay were performed using [3H]rauwolscine (0.5 nM), and nonspecific binding was determined by incubation with 10 μM phentolamine. The bound radioligand was separated by filtration through GF/B filters using a cell harvester.

Ki (human α1d receptor) [µM]	Ki (human α2c receptor) [µM]	Structure (SMILES)
1.97	1.5	O=C1OCC2=C1C(c1ccc(F)c(F)c1)N(C(=O)NCCCN1CCC(c3ccccn3)CC1)C(=O)N2 (single isomer, unassigned; (+)) [Compound 8, (+)-1-3-{[4-(3,4-Difluorophenyl)-2,5-dioxo-1,2,5,7-tetrahydro-4H-furo[3,4-d]-pyrimidine-3-carbonyl]amino}-propyl-4-(2-pyridyl)-piperidine]
1.2	0.26	COC(=O)C1=C(CO)NC(=O)N(C(=O)NCCCN2CCC(c3ccccn3)CC2)[C@H]1c1ccc(F)c(F)c1 [Compound 7, (+)-1,2,3,6-Tetrahydro-1-{N-[4-(2-pyridyl)piperidin-1-yl]propyl}carboxamido-5-methoxycarbonyl-4-hydroxymethyl-6-(3,4-difluorophenyl)-2-oxopyrimidine]
> 5	> 50	O=C(O)CCNC(=O)N1C(=O)NC2=C(C(=O)OC2)[C@@H]1c1ccc(F)c(F)c1 [Compound 9]

The next lines start with the molecule.

Structure (SMILES)	Ki (human α1d receptor) [µM]	Ki (human α2c receptor) [µM]
COCC1=C(C(=O)OC)[C@H](c2ccc(F)c(F)c2)N(C(=O)NCCCO)C(=O)N1 [Compound 1, (+)-1,2,3,6-Tetrahydro-1-(3-hydroxypropyl)carboxamido-5-methoxycarbonyl-4-methoxymethyl-6-(3,4-difluorophenyl)-2-oxo-pyrimidine]	> 50	> 50
COCC1=C(C(=O)OC)[C@H](c2ccc(F)c(F)c2)N(C(=O)NCCCN2CCC(c3cccc[n+]3[O-])CC2)C(=O)N1 [Compound 2, (+)-1,2,3,6-Tetrahydro-1-{N-[4-(2-pyridyl)piperidin-1-yl]propyl}carboxamido-5-methoxycarbonyl-4-methoxymethyl-6-(3,4-difluorophenyl)-2-oxopyrimidine-pyridine-N-oxide hydrochloride]	3.7	1.5
COCC1=C(C(=O)OC)[C@H](c2ccc(F)c(F)c2)N(C(=O)NCCC[n+]2ccc(-c3ccccn3)cc2)C(=O)N1 [Compound 3, 4-(2-Pyridyl)-1-{3-[5-carboxymethyl-4-methoxymethyl-2-oxo-6(S)-(3,4-difluorphenyl)-1,2,3,6-tetrahydropyrimidin-1-yl]carboxyaminopropyl}pyridinium chloride]	> 5	3.39
